Measurements as given in patent US10329304B2, “Compounds and methods for inhibition of hedgehog signaling and phosphodiesterase” (Vanderbilt University, priority 2014, dated 2019).

system: zebrafish embryos; test: Zebrafish embryo phenotypic assay (ZF); assay type: in vivo; details: wild-type embryonic zebrafish, dosed 5 hpf
Method: All zebrafish experiments were approved by Vanderbilt University Institutional Animal Care and Use Committee. Wild-type zebrafish of AB strain were maintained using standard protocols. Chemical screen for small molecules was performed as previously described. Briefly, pairs of zebrafish were mated, and fertilized eggs were arrayed in 96-well microtiter plates (5 embryos/well) containing 250 μl E3 water. At ˜4-hpf, small molecule library from Vanderbilt High Throughput Screening Facility was added to each well to the final concentration of 5 μM. Embryos were incubated at 28.5° C. until 24 and 48-hpf, when they were examined for gross morphologic changes indicative of disruption in embryonic patterning. A total of ˜30,000 compounds were screened.
ZF refers to wild-type embryonic zebrafish phenotypic assay involving dosing n=˜10 embryos in E3 egg water with compound from either a stock of 1 mM or 10 mM in DMSO at 5 hours post-fertilization and observing at 24, 48, and 72 hours post-fertilization.

Structure (SMILES)	ZF Phenotype EC100
C=C(C)Cn1c(SCc2nc3ccc(C(=O)O)cc3[nH]2)nc2sc3c(c2c1=O)CCCC3 [KK-14-096-1]	>50 µM
C=C(C)Cn1c(SCC(=O)c2ccc(Cl)s2)nc2sc3c(c2c1=O)CCCC3 [KK-14-094-2]	>50 µM
O=C(CSc1nc2sc3c(c2c(=O)n1C1CC1)CCN(C(=O)C1CC1)C3)c1cccs1 [JEH-1-124]	>50 µM
C=C(C)Cn1c(SCc2nc3ccc(S(=O)(=O)Nc4ccccc4OC)cc3[nH]2)nc2sc3c(c2c1=O)CCCC3 [KK-093-2]	>50 µM
C=C(C)Cn1c(SCc2nc3ccc(Cl)cc3o2)nc2sc3c(c2c1=O)CCCC3 [KK-14-094-3]	>50 µM
COC(=O)c1c(NC(=S)NC2CC2)sc2c1CCNC2 [KYK-1-96]	>50 µM
O=C(CSc1nc2sc3c(c2c(=O)n1-c1ccc(Br)cc1)CCCC3)c1cccs1 [JEH-1-050-1]	>50 µM
COC(=O)c1cc(-c2ccc(F)cc2)sc1NC(=S)NC1CC1 [JEH-2-026]	25 µM
O=C(CSc1nc2sc3c(c2c(=O)n1C1CC1)CCN(S(=O)(=O)c1ccc([N+](=O)[O-])cc1)C3)c1ccccc1 [KYK-1-61]	>50 µM
C=C(C)Cn1c(SCC(=O)c2cc3ccccc3o2)nc2sc3c(c2c1=O)CCCC3 [KK-14-094-1]	>50 µM
O=C(CSc1nc2sc3c(c2c(=O)n1C1CC1)CCN(Cc1ccco1)C3)c1ccccc1 [KYK-1-103-1]	>50 µM
O=C(CSc1nc2sccc2c(=O)n1CC1CC1)c1ccccc1 [JEH-2-007-1]	10 µM
O=C(O)c1ccc(-n2c(SCC(=O)c3cccs3)nc3sc4c(c3c2=O)CCCC4)cc1 [JEH-1-066]	>50 µM
CSc1nc2sccc2c(=O)n1C1CC1 [JEH-1-131-2]	>50 µM
CC(C1CC1)n1c(SCC(=O)c2ccccc2)nc2sccc2c1=O (centres unmarked) [JEH-2-003]	30 µM
C#CCNC(=O)CSc1nc2sc3c(c2c(=O)n1CC(=C)C)CCCC3 [JEH-2-060]	30 µM
CC(C1CC1)n1c(SCC(=O)Nc2ccccn2)nc2sccc2c1=O (centres unmarked) [JEH-2-041-1]	20 µM
CSc1nc2sc3c(c2c(=O)n1C1CC1)CCCC3 [JEH-1-127]	>50 µM
O=c1c2ccsc2nc(SCc2ccc(Br)cc2)n1C1CC1 [JEH-1-190-2]	50 µM

system: Hedgehog signaling (TM3-Gli-Luc); test: TM3-Gli-Luc luciferase reporter assay stimulated with 20 nM SAG; assay type: cell-based; details: not given
Method: TM3-Gli-Luc cells were maintained on sterile 0.1% gelatin (from porcine skin, Type A, prepared in MilliQ water, autoclaved, then sterile-filtered) in 1:1 Dulbecco's Modified Eagle Medium (DMEM)/F12 supplemented with 5% horse serum, 2.5% fetal bovine serum (FBS), and 15 mM HEPES, hereafter referred to as TM3 Culture Medium. For small molecule evaluation, TM3-Gli-Luc cells were assayed on 0.1% gelatin in DMEM/F12 supplemented with 2.5% FBS and 15 mM HEPES, hereafter referred to as TM3Luc Medium. Sufu^−/− cells were maintained in DMEM supplemented with 4.5 g/L D-glucose, L-glutamine, 25 mM HEPES, and 10% FBS, hereafter referred to as D10 FBS. For small molecule evaluation, Sufu^−/− cells were assayed in DMEM supplemented with 4.5 g/L D-glucose, L-glutamine, 25 mM HEPES, and 0.5% FBS, hereafter referred to as D0.5 FBS. All cells were cultured at 37° C. with a 5% CO2 atmosphere.
On the day of cell plating, 96-well plates were coated with 50 μL/well of sterile 0.1% gelatin for 5 minutes then aspirated and replaced with 50 μL/well of TM3 Culture Medium. TM3-Gli-Luc cells were seeded at a density of 5,000 cells/well in TM3 Culture Medium and incubated for 24 hours. A master mix of 20 nM SAG in TM3Luc Medium was prepared, and small molecule solutions were prepared by adding the desired amount of compound from 10 mM DMSO stock to TM3Luc Medium containing 20 nM SAG. Negative control was prepared by adding an equi-volume amount of DMSO as compared to small molecule treated conditions to TM3Luc Medium not containing SAG. Cell plating medium was aspirated and replaced with 100 μL/well of prepared small molecule-containing media, and plates were incubated for 48 hours before proceeding to luciferase activity and cell viability reading.
TM3Luc Medium from compound treated plates was aspirated and replaced with 82 μL/well of Glo Lysis Buffer (Promega, Madison, Wis., USA), and plates were shaken at 300 rpm and room temperature for 12 minutes. Lysate was split between two white 96-well plates, 45 μL/well and 25 μL/well for luciferase reading and cell viability respectively. For luciferase activity monitoring, 45 μL/well of Steady Glo (Promega, Madison, Wis., USA) was added to 45 μL/well of cell lysate, incubated at room temperature for 5 minutes, then luminescence was measured on a Turner Biosystems Modulus Microplate Reader (Sunnyvale, Calif., USA) with an integration time of 0.5 seconds. For cell viability measurement, 25 μL/well of Cell Titer Glo (Promega, Madison, Wis., USA) (prepared by 1:10 dilution with Glo Lysis Buffer) was added to 25 μL/well of cell lysate, incubated at room temperature for 5 minutes, then luminescence was measured as above.
Luciferase activity data (Steady Glo) was divided by corresponding cell viability data (Cell Titer Glo) to arrive at a live cell number-normalized luciferase activity reading. The average of negative control data (DMSO treated) was subtracted from all wells, and percent activity was calculated by dividing all wells by the positive control (SAG treated) average. […] At least two independent assays tested on separate days were averaged to provide EC50±standard error of the mean.

Structure (SMILES)	TM3 G8 Luciferase % Inh., 2 pM
C=C(C)Cn1c(SCC(=O)N2CCCC[C@H]2C)nc2sc3c(c2c1=O)CCCC3 [JEH-4-136]	44.3%

same assay, conditions: 0.5 pM as printed

Structure (SMILES)	TM3 G8 Luciferase % Inh., 0.5 pM
C=C(C)Cn1c(SCC(=O)N2CCCC[C@H]2C)nc2sc3c(c2c1=O)CCCC3 [JEH-4-136]	3.7%

same assay, conditions: 20 nM SAG

Hh inhibitory activity / potency in words	Structure (SMILES)
complete loss of inhibition	O=C(COc1nc2sccc2c(=O)n1C1CC1)c1ccccc1 [Formula 22a]
complete loss of activity	C=C(C)Cn1c(SCC(=O)c2cccs2)nccc1=O [Formula 14a]
complete loss of inhibition	O=C(CNc1nc2sccc2c(=O)n1C1CC1)c1ccccc1 [Formula 22b]
complete loss of Hh inhibitory activity	C=C(C)Cn1c(SCC(=O)c2cccs2)nccc1=O [Formula 12]
only modest potency reductions	CC(O)(CSc1nc2sccc2c(=O)n1C1CC1)c1ccccc1 (centres unmarked) [Formula 20b]

same assay, conditions: 20 nM SAG; read-out: EC50

Structure (SMILES)	EC50
C=C(C)Cn1c(SCC(=O)c2cccs2)nc2sc3c(c2c1=O)CCCC3 [EGM1]	1.34 µM

same assay, conditions: TM3-Gli-Luc reporter line stimulated with 20 nM SAG; mean ± SEM; Table 13; read-out: TM3-Gli-Luc EC50

EC50	Structure (SMILES)
> 20 µM	C=C(C)Cn1c(SCC(=O)c2cccs2)nccc1=O [Formula 14a]
> 20 µM	C=C(C)Cn1c(SCC(=O)c2cccs2)nccc1=O [Formula 12]

same assay, conditions: Table 9A; read-out: TM3 G8 Luciferase EC 50

EC50	Structure (SMILES)
31.6 µM	Cc1sc2nc(SCC(=O)c3ccccc3)n(C3CC3)c(=O)c2c1C [JEH-5-087]
6.03 µM	O=C(CSc1nc2sc3ccccc3c2c(=O)n1C1CC1)N1CCCCC1 [JEH-4-055-2]
5.5 µM	C=C(C)Cn1c(SCCc2cccs2)nc2sc3c(c2c1=O)CCCC3 [JEH-4-135]
16.6 µM	O=C(CSc1nc2sc3ccccc3c2c(=O)n1C1CC1)c1ccccc1 [JEH-4-055-1]
25 µM	C=C(C)Cn1c(NCC(=O)c2cccs2)nc2sc3c(c2c1=O)CCCC3 [JEH-5-052]
2.51 µM	C=C(C)Cn1c(SCC(=O)c2cccs2)nc2sc3c(c2c1=O)CCSC3 [JEH-4-143]
